Assay results from US20250242017A1, “HISTAMINE AND HRH1 SIGNALING ACTIVITY AS BIOMARKERS AND ASSOCIATED METHODS” (Board of Regents, The University of Texas System, priority 2022, published 2025).

Assays:
[1] = system: CD8+ T cells; test: In vitro co-culture of macrophages with T cells; type: cell-based, mouse
Procedure: In vitro co-culture with T cells. Spleens from wild-type C57BL/6 or BALB/c mice were harvested and filtered through a […] cell strainer to generate a single-cell suspension. After red blood cell lysis, splenocytes were counted and plated in complete Roswell Park Memorial Institute 1640 medium supplemented with […] b-mercaptoethanol and 10 mM HEPES onto 12-well plates coated with […] anti-CD3 (clone 145-2C11, BioLegend) and […] anti-CD28 (clone 37N, BioLegend) antibodies. Spleen T cells were activated for 48 hours before co-culture with macrophages. To educate the macrophages, we co-cultured naïve BMDMs with tumor cells at a ratio of 1:1 or with tumor cell-derived conditioned medium for 48 hours. Macrophages were seeded with activated T cells at a ratio of 5:1. After co-culture for another 24 or 48 hours, T cells were collected for flow cytometry analysis.
(§1) Flow cytometry staining and analysis.

[2] = system: OVA-transduced EO771 tumor cells; test: In vitro T cell killing assay (OT-I); type: cell-based, mouse; settings: in presence of FEXO-treated macrophages
Procedure: In vitro T cell killing assays. Ovalbumin (OVA)-expressing EO771 cells alone or co-cultured with macrophages at a ratio of 1:2 were plated into 12-well plates. The following day, OT-I T cells pre-activated by OVA257-264 were added to the plates at the indicated ratio. After co-culture for another 48 hours, the tumor cells were harvested and counted to determine T cell killing ability.

[3] = system: EO771 tumors
Source text: (§2) Tumor inductions and treatment experiments.
(§3) Isolation of tumor-infiltrating cells.
as §1

[4] = system: CT26 tumors; test: CT26 tumor model with or without OVA-induced allergic airway disease; type: in vivo, mouse
Source text: as §2, §3, §1

[5] = system: EMT6 tumors; test: EMT6 tumor model with or without OVA-induced allergic airway disease; type: in vivo, mouse
Source text: as §2, §3, §1

[6] = system: bone marrow-derived macrophages (BMDMs); settings: TCM-treated WT BMDMs; FEXO 10 mM, 48 h
Procedure: Generation of naïve bone marrow-derived macrophages (BMDMs). Bone marrow cells were collected from femurs obtained from 8- to 10-week-old C57BL/6 or BALB/c mice. After red blood cell lysis, bone marrow cells were seeded at a density of 5×10^6 cells/150×15 mm Petri dish and cultured at 37° C. in complete Dulbecco modified Eagle medium (DMEM) containing 20% L929 cell-conditioned medium, providing macrophage colony-stimulating factor. Macrophages were ready for use on day 7 following a fresh medium change on day 4.
Macrophage polarization and stimulation. To polarize macrophages toward an M1-like phenotype, we stimulated PBMC-derived macrophages or BMDMs with IFN-g (20 ng/ml, PeproTech) for 48 hours. To induce an M2-like phenotype, we treated THP-1-derived macrophages or BMDMs with IL-4 (20 ng/mL, PeproTech) for 48 hours. […] To stimulate macrophages with tumor cell-derived conditioned medium (TCM), we cultured BMDMs with complete medium containing 50% TCM (volume).
Flow cytometry staining and analysis. Live single cells were sub-gated by staining with Fixable Viability Dye eFluor 450 (eBioscience) for 15 minutes at 4° C. For blocking of Fc receptors, cells were then pre-incubated with purified anti-CD16/32 antibody (clone 93, BioLegend) for 10 minutes on ice before immunostaining. […]

[7] = system: CT26 tumors; test: CT26 colorectal carcinoma model; settings: WT mice
Procedure: Tumor inductions and treatment experiments. […] For the CT26 model, 2×10^5 CT26 cells were subcutaneously injected into the back of BALB/c mice. […] Treatments were given as single agents or in combination, with the following regimen for each drug. […] Treatments were initiated on day 5 after tumor inoculation for the entire duration of the experiment. […] Anti-VISTA antibody (clone 13F3, Bio X Cell, 300 mg/mouse) was injected subcutaneously every day for 10 days starting on day 7, followed by continuous injection every 2 days for the rest of the duration of the experiment (Le Mercier et al., 2014). […] Tumor size was measured by calipers every second or third day when tumors were palpable, and the volume was calculated using the formula V=as (width×width×length)/2.

[8] = system: B16-GM tumors; test: B16-GM melanoma model
Procedure: Tumor inductions and treatment experiments. […] For LLC and B16-GM models, 2×10^5 tumor cells were subcutaneously injected into the back of C57BL/6 mice. […] Treatments were given as single agents or in combination, with the following regimen for each drug. […] Treatments were initiated on day 5 after tumor inoculation for the entire duration of the experiment. […] Anti-VISTA antibody (clone 13F3, Bio X Cell, 300 mg/mouse) was injected subcutaneously every day for 10 days starting on day 7, followed by continuous injection every 2 days for the rest of the duration of the experiment (Le Mercier et al., 2014). For in vivo CD8+ T cell depletion, mice were treated with 200 mg of anti-CD8 antibody every 3-4 days starting at 3 days before B16-GM tumor inoculation. […] Tumor size was measured by calipers every second or third day when tumors were palpable, and the volume was calculated using the formula V=as (width×width×length)/2.
Isolation of tumor-infiltrating cells. Mouse tumor samples were chopped with scissors and then subjected to enzymatic digestion with 2 mg/ml collagenase A (Roche) in DMEM for 1 hour at 37° C. Next, tissues were filtered through 70-mm filters (BD Biosciences) to achieve single-cell suspensions. After treatment with red blood cell lysis buffer for 5 minutes at room temperature, all samples were washed and re-suspended in flow cytometry buffer (phosphate-buffered saline/0.5% albumin/2 mM EDTA) or DMEM depending on further use.
Flow cytometry staining and analysis. Live single cells were sub-gated by staining with Fixable Viability Dye eFluor 450 (eBioscience) for 15 minutes at 4° C. For blocking of Fc receptors, cells were then pre-incubated with purified anti-CD16/32 antibody (clone 93, BioLegend) for 10 minutes on ice before immunostaining. After one wash with flow cytometry buffer, cells were incubated with appropriate dilutions of various combinations of the following antibodies. Primary antibodies to cell surface markers directed against CD45 (30-F11), CD3 (145-2C11), CD8a (53¬6.7), CD11b (M1/70), Gr-1 (RB6-8C5), F4/80 (BM8), CD206 (C068C2), I-A/I-E (M5/114.15.2), VISTA (MHSA), Tim-3 (B8.2C12), CD11c (N418), CD24 (M1/69), GITRL (YGL 386), ICOSL (HK5.3), 4-1BBL (TKS-1), CD276 (RTAA15), OX40L (RM134L), Galectin-9 (RG9-35), PD-L1 (10F.9G2), and PD-L2 (TY25) were from BioLegend; against HRH1 (480054), from R&D Systems; against HRH1 (AHR-001), from Alomone Labs; and against Siglec-F (E50-2440), from BD Biosciences. For intracellular staining, cells were fixed, permeabilized using Foxp3/Transcription Factor Staining Buffer Set (eBioscience), and then stained with fluorochrome-conjugated antibodies to Ki-67 (16A8) and PRF1 (S16009A) from BioLegend.

[9] = system: macrophages; test: Intracellular calcium measurement (Fluo-Forte); type: cell-based, mouse; settings: after histamine or TCM treatment
Procedure: Intracellular calcium measurement. Intracellular Ca2+ was determined using the Fluo-Forte calcium assay kit (Enzo Life Sciences) according to the manufacturer's instructions. Fluorescence was measured using a BD FACSCanto II Flow Cytometer.

[10] = system: LLC tumors; test: LLC lung carcinoma model; type: in vivo, mouse; settings: FEXO-treated vs vehicle-treated
Source text: as §2, §3, §1

[11] = system: 4T1 tumors; test: 4T1 mammary tumor model; type: in vivo, mouse
Source text: as §2, §3, §1

[12] = FEXO-treated WT mice vs controls
[13] = FEXO-treated vs vehicle-treated WT mice
[14] = PD-L1-/- mice treated with FEXO

## CC(C)(C(=O)O)c1ccc(C(O)CCCN2CCC(C(O)(c3ccccc3)c3ccccc3)CC2)cc1 (centres unmarked) [FEXO, fexofenadine]
[1]; FEXO treatment of HRH1-/- macrophages vs vehicle-treated HRH1-/- macrophages
  T cell activation/killing: did not increase
[1]; FEXO-treated macrophages cultured with WT splenic T cells
  TAM-mediated T cell suppression (T cell proliferation, IFN-g, PRF1): abrogated TAM-mediated T cell suppression
[2]
  OT-I cell-mediated killing of OVA-transduced EO771 tumor cells: increased ovalbumin (OVA)-specific OT-I cell-mediated killing
[3]; [12]
  VISTA expression on TAMs: Reduced VISTA expression
[3]; [13]
  numbers of IFN-g+ and PRF1+ CD8+ T cells: increased numbers
  tumor growth: reduced tumor growth
[3]; [14]
  survival: dramatically prolonged survival
  tumor inhibition: most effective tumor inhibition
[4]; OVA-allergic BALB/c mice
  allergy-increased CT26 tumor growth: largely blocked by FEXO treatment
[4]; allergic mice, ICB+FEXO
  sensitivity of tumors to ICB therapy with FEXO treatment: largely restored sensitivity
[5]; OVA-allergic BALB/c mice
  allergy-accelerated EMT6 tumor growth: largely blocked by FEXO treatment
[5]; allergic mice, ICB+FEXO
  sensitivity of tumors to ICB therapy with FEXO treatment: largely restored sensitivity
[6]
  M1-M2 polarization status (MHCII, CD206): polarized macrophages toward an M1-like phenotype
[7]
  CT26 tumor growth: delayed tumor growth
[8]; [12]
  VISTA expression on TAMs: Reduced VISTA expression
[8]; FEXO-treated WT mice, anti-CD8 antibodies
  inhibition of B16-GM tumor growth under CD8+ T cell depletion: blocked by depleting CD8+ T cells
[8]; [13]
  numbers of IFN-g+ and PRF1+ CD8+ T cells: increased numbers
  tumor growth: reduced tumor growth
[8]; after surgical removal of primary melanomas at 100 mm3, FEXO vs vehicle
  B16-GM lung metastases: inhibited
[9]
  intracellular free Ca2+ levels: higher in WT macrophages than in HRH1−/− macrophages and FEXO-treated WT macrophages
[10]
  VISTA on TAMs: Decreased VISTA on TAMs
[11]; FEXO-treated WT mice bearing 4T1 tumor vs controls
  VISTA expression on alveolar macrophages from lung metastases: downregulated
[11]; FEXO-treated vs vehicle-treated
  VISTA on TAMs: Decreased VISTA on TAMs
